Experimental findings from patent US20240026461A1, “BCL10 MUTATIONS AS BIOMARKERS FOR TARGETED THERAPY IN B CELL LYMPHOMAS” (priority 2022, published 2024) are described below.

Numbering of substitutions follows the chain as printed. Names and notes keep the numbering of the source. Where two headings read alike, the source gives them in different places. Where only a bound is given, the exact number is not on record here.

One data set has as its system OCI-LY10^E140X. Briefly: Growth inhibition assay (CellTiter Glo), OCI-Ly10 cells expressing BCL10 E140X. Type of data set: cell-based. The conditions noted are these: Homo sapiens, 96 h. As for the experimental part:
(§1) DLBCL cell lines were cultured in exponential condition and the cell growth was determined by CellTiter Glo (Promega). 3000-5000 cells were seeded and cultured in each well of 384 well plate for 96 h and treated with compounds every 48 h. Luminescence was read at the endpoint with the Synergy NEO microplate reader (BioTek). The value of compound treated cells was normalized to their vehicle treated controls and then used to calculate IC50 in GraphPad Prism (RRID:SCR_002798).
(§2) Given the distinct functional profiles, CARD11 dependencies, and MALT1 activation effects of the BCL10 CARD and truncation mutants, the inventors designed experiments to evaluate whether, and to what extent, these mutant BCL10 proteins might confer BTK inhibitor resistance. Isogenic ABC-DLBCL cells expressing BCL10WT, BCL10^R58Q and BCL10^E140X proteins were treated with escalating doses of three chemically distinct covalent BTK inhibitors: ibrutinib, acalabrutinib, or zanubrutinib. The cellular proliferation rates of the treated cells were measured using an ATP fluorescence assay after 96 hours of drug exposure.
(§3) Isogenic BCL10^WT, BCL10^R58Q and BCL10^E140X ABC-DLBCLs were exposed to increasing concentrations of each of these compounds for 96 hours.
(In ATP-based viability assays light output follows the ATP content of the culture.)

The next data set deals with HBL1^WT. Briefly: Growth inhibition assay (CellTiter Glo), HBL1 cells expressing BCL10 WT. Type of data set: cell-based. The note with it: Homo sapiens, 96 h. On the procedure:
as §1, §2, §3

The next data set relates to OCI-LY10^WT. The data set can be described thus: Growth inhibition assay (CellTiter Glo), OCI-Ly10 cells expressing BCL10 WT. Type of data set: cell-based. The conditions noted are these: Homo sapiens, 96 h. As for the experimental part:
as §1, §2, §3

For a further data set, the system named is HBL1^R58Q. Briefly: Growth inhibition assay (CellTiter Glo), HBL1 cells expressing BCL10 R58Q. Type of data set: cell-based. The conditions noted are these: Homo sapiens, 96 h. On the procedure: as §1, §2, §3
A further data set deals with OCI-LY10^R58Q. The data set can be described thus: Growth inhibition assay (CellTiter Glo), OCI-Ly10 cells expressing BCL10 R58Q. The note with it: Homo sapiens, 96 h. Type of data set: cell-based. As for the experimental part: as §1, §2, §3
Another data set has as its system HBL1^E140X. The data set can be described thus: Growth inhibition assay (CellTiter Glo), HBL1 cells expressing BCL10 E140X. The conditions noted are these: Homo sapiens, 96 h. Type of data set: cell-based. As for the experimental part: as §1, §2, §3
The test system of data set [1] is isogenic ABC-DLBCL cells expressing BCL10^WT, BCL10^R58Q and BCL10^E140X. The data set can be described thus: Growth inhibition of isogenic ABC-DLBCL cells, response described in words. Type of data set: cell-based, human. The conditions noted are these: 96 hours. On the procedure:
as §1, §2, §3

Data set [2] has as its target T1, Full length His-tagged MALT1 (human, UniProt Q9UDY8 2-824).
T1 construct: mature; also called purified, full length MALT1; FL MALT1; not shown: His tag
T1 sequence (looked up): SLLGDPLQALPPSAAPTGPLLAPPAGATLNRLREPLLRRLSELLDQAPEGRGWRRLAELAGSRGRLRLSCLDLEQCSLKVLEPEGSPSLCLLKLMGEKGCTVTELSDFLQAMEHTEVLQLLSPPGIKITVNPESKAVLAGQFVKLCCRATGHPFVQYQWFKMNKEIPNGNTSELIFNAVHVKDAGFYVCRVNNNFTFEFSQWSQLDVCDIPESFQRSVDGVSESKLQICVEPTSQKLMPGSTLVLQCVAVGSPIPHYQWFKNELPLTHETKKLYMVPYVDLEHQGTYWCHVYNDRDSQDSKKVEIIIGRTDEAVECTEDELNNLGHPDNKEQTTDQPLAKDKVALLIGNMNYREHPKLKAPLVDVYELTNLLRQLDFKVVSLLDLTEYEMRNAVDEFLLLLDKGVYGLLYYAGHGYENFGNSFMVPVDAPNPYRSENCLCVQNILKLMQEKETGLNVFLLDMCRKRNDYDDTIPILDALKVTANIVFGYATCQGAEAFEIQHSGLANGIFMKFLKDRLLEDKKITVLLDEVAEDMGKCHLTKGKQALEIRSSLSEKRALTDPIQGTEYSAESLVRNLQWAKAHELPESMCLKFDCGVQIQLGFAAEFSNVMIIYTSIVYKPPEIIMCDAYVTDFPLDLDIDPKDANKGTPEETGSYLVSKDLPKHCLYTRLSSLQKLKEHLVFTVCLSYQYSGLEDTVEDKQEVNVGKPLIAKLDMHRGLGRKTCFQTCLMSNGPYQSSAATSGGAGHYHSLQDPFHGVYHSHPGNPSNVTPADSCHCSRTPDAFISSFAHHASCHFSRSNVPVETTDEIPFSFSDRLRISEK
The data set can be described thus: negative staining EM of BCL10 filaments incubated with MALT1. On the procedure:
This new MALT1 binding domain is deleted from BCL10^E140X. The inventors next explored whether there was any impairment in MALT1 recruitment to BCL10 filaments, by generating BCL10^WT and BCL10^E140X filaments in vitro and incubating them with purified, full length MALT1 followed by negative staining electron microscopy (EM). […] However, this experiment may not provide sufficient resolution to show whether MALT1 distribution on the different BCL10 polymers was altered. Therefore, cryo-EM data were then collected on a Titan Krios microscope operating ats 300 keV and equipped with a Falcon II direct electron detector. The cryo-EM structure of BCL10^E140X filaments in complex with MALT1 was thus determined at 4.3 Å resolution.
Given that this new MALT1 binding domain is deleted from BCL10^E140X we next explored whether there was any impairment in MALT1 recruitment to BCL10 filaments, by generating BCL10^WT and BCL10^E140X filaments in vitro and incubating them with purified, full length MALT1 followed by negative staining EM. […] The structure of the BCL10^E140X filament with MALT1 was highly similar to that of the BCL10^WT filament with MALT1 at 4.9 Å resolution, in which the DDS of MALT1 bind the CARD of BCL10 and decorate the outside of the core CARD filament (FIG. 11G-I).

Data set [3] concerns the molecule itself. The data set can be described thus: confocal fluorescence microscopy of Alexa488-BCL10 filaments 4 h after 3C cleavage of MBP; self-association. As for the experimental part: To determine the mechanism through which BCL10 mutants might confer a biochemical gain of function, full-length BCL10^WT, BCL10^E140X and BCL10^R58Q fused to a 3C protease-cleavable maltose binding protein (MBP) at the N-terminus to keep the proteins in a monomeric state were expressed and purified (FIG. 9A). The purified proteins were labeled with Alexa488 through cysteine residues in the unstructured C-terminal region. Spontaneous filament formation was then assessed by confocal fluorescence microscopy as a function of BCL10 concentration 4 h after mixing with the 3C protease to remove the MBP tag. […] The kinetics of filament formation by these proteins was imaged at […] concentration, which is above the concentration of polymerization for WT and these mutant BCL10 proteins using time lapse confocal fluorescence microscopy.

In data set [4] the target is T2, BCL10^R58Q (recombinant, full-length, after 3C cleavage of the MBP tag).
T2 chain: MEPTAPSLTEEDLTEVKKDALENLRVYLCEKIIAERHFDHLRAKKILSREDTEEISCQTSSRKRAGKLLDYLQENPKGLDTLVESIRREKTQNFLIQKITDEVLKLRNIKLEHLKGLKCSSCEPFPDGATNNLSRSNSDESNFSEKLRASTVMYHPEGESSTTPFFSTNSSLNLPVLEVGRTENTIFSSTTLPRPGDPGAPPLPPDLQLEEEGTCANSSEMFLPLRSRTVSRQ

Data set [5] has as its target T3, BCL10^WT (recombinant, full-length, after 3C cleavage of the MBP tag).
T3 chain: T2 chain with Q58R

Data set [6] addresses T4, BCL10^E140X (recombinant, after 3C cleavage of the MBP tag).
T4 chain: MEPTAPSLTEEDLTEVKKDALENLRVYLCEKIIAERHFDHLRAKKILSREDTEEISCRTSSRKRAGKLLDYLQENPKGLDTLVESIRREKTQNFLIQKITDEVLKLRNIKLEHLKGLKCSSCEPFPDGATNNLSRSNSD

[7] abbreviates: read-out: IC50, growth inhibition, BTK inhibitors.
Where [8] appears, read: read-out: IC50, growth inhibition, MALT1 inhibitors.

As usually defined, the IC50 is the concentration needed to halve the response being measured. On to `CC#CC(=O)N1CCC[C@H]1c1nc(-c2ccc(C(=O)Nc3ccccn3)cc2)c2c(N)nccn12` [Acalabrutinib], for which the IC50 in the data set with OCI-LY10^E140X (setting [7]) came out at 5.39 ± 0.77 nM; in the data set with HBL1^WT (setting [7]), 4.75 ± 2.11 nM; in the data set on OCI-LY10^WT (setting [7]) it was 6.38 ± 0.35 nM; with HBL1^R58Q (setting [7]), 5.54 ± 0.32 nM; in the data set with OCI-LY10^R58Q (setting [7]) it was 7.69 ± 0.59 nM; in the data set with HBL1^E140X (setting [7]), 28.2 ± 21.2 nM.
On to `CO[C@H](c1c(NC(=O)Nc2cnc(-n3nccn3)c(Cl)c2)cnc2cc(Cl)nn12)[C@@H](C)OC` [MLT-748], for which the IC50 with OCI-LY10^E140X (setting [8]) worked out at 90 ± 60 nM; in the data set on HBL1^WT (setting [8]), 1940 ± 200 nM; in the data set on OCI-LY10^WT (setting [8]), 70 ± 6 nM; in the data set with HBL1^R58Q (setting [8]), 3320 ± 1460 nM; with OCI-LY10^R58Q (setting [8]), 240 ± 50 nM; in the data set with HBL1^E140X (setting [8]) it was 540 ± 500 nM. Further, the “growth response in words” value in [1] (BCL10^R58Q ABC-DLBCL cells) and in [1] (BCL10^WT ABC-DLBCL cells) was “generally sensitive” each time.
With `C=CC(=O)N1CCC([C@@H]2CCNc3c(C(N)=O)c(-c4ccc(Oc5ccccc5)cc4)nn32)CC1` [Zanubrutinib], the IC50 in the data set with OCI-LY10^E140X (setting [7]) was 2.86 ± 0.13 nM; in the data set on HBL1^WT (setting [7]) it was 1.46 ± 0.32 nM; with OCI-LY10^WT (setting [7]) it was 1.74 ± 0.08 nM; in the data set on HBL1^R58Q (setting [7]) it was 1.58 ± 0.06 nM; with OCI-LY10^R58Q (setting [7]), 1.81 ± 0.33 nM; with HBL1^E140X (setting [7]), 9.31 ± 6.22 nM.

B1: BCL10^E140X (recombinant, after 3C cleavage of the MBP tag) (other)
chain: T4 chain
modifications: Alexa488 (C5-maleimide) on cysteine residues in the confocal and quenching assays
notes: Range 1-139 from the name E140X; Made as His-MBP-3C site-BCL10; MBP removed by 3C protease; also called E140X filaments; BCL10 (1-140)
Consider B1, for which, in data set [2], the binding result is “binds”. This molecule gave a concentration of polymerization in [3] of at most 100 nM.

B2: Full length His-tagged MALT1 (protein)
chain: T1 sequence (looked up)
For B2, the “BCL10 polymerization kinetics by fluorescence quenching (3 µM Alexa488-BCL10, MALT1 at 0, 1.5, 3, 6 and 12 µM)” value is “increasing doses of MALT1 suppressed BCL10^WT and BCL10^R58Q filament formation in a dose dependent manner” in [4]; “increasing doses of MALT1 suppressed BCL10^WT and BCL10^R58Q filament formation in a dose dependent manner” in data set [5]; “there was little suppression of BCL10^E140X polymerization by MALT1 at any dose” in [6].

B3: BCL10^WT (recombinant, full-length, after 3C cleavage of the MBP tag) (other)
chain: T2 chain with Q58R
modifications: Alexa488 (C5-maleimide) on cysteine residues in the confocal and quenching assays
notes: Made as His-MBP-3C site-BCL10 (vector pDB-His-MBP); MBP removed by 3C protease to start filament formation; Forms helical filaments (number of copies not fixed); also called BCL10 FL; BCL10 WT filaments
As to B3, the binding result in data set [2] is “binds”. The molecule also came in with a concentration of polymerization in data set [3] of around 500 nM.

B4: BCL10^R58Q (recombinant, full-length, after 3C cleavage of the MBP tag) (other)
chain: T2 chain
modifications: Alexa488 (C5-maleimide) on cysteine residues in the confocal and quenching assays
notes: Made as His-MBP-3C site-BCL10; MBP removed by 3C protease; Forms filaments; also called R58Q filaments
For B4, the concentration of polymerization in data set [3] was around 250 nM.
